Results reported in article PMC4760274, “Elongation factor 2 kinase promotes cell survival by inhibiting protein synthesis without inducing autophagy” (Cellular Signalling, 2016).

What was measured:
[1] = system: autolysosome formation in A549 cells; assay: autophagic flux analysis with mCherry-EGFP-LC3B in A549 cells; format: cell-based, human; conditions: AZD8055 1 μM, after release from BafA1, Fig. 2C, D
Experimental: A549 cells were transfected with a vector encoding mCherry-EGFP-LC3B, a tandem fluorescent-tagged LC3 (a kind gift from Dr. Terje Johansen, Biochemistry Department, Institute of Medical Biology, University of Tromsø, Norway), using lipofectamine 3000 (L3000001, Life technologies) following manufacturer's instructions. After treatment cells were washed twice in phosphate buffered saline (PBS, 18912-014, Gibco) and then fixed in 4% formaldehyde (F8775, Sigma-Aldrich) for 15 min. Fixed cells were washed thrice in PBS and permeabilized with 0.1% Triton-X 100 for 5 min. Cells were then again washed thrice in PBS and mounted in ProLong® Gold Antifade Mountant (P36935, Life technologies). Cells were visualized using Leica TCS SP8X/MP microscope equipped with a tuneable white light laser using a 40 × oil immersion objective lens (NA = 1.30) numerical aperture objective. Green/red fluorescence ratio (GFP loss upon autolysosome formation) was measured using the Leica Application Suite X (LAS X) software (version 1.1.0).
We also examined the progression of autolysosome formation using a tandem fluorescently-tagged LC3 (mCherry-EGFP-LC3B) which allowed us to determine autophagosome and lysosome fusion by evaluating loss of GFP fluorescence. Green (GFP) but not red (mCherry) fluorescence is quenched by protonation in response to acidified intra-lysosomal pH upon autolysosome fusion. […]

LC3II in A549 cells = assay: LC3 modification in A549 cells (western blot); format: cell-based, human; conditions: untransfected A549; AZD8055 1 μM; Fig. 2E
Experimental: (§1) After treatment, cells were lysed in ice-cold lysis buffer containing 1% (v/v) Triton X-100 (215680010, Acros Organics), 50 mM Tris (T6066-1KG, Sigma-Aldrich)–HCl (258148-2.5 L, Sigma-Aldrich) pH 7.4, 50 mM NaCl (BP358-212, Fisher Scientific), 0.2 mM EDTA (BP120-500, Fisher Scientific), 0.2 mM EGTA (E1102, Melford), 50 mM β-glycerophosphate (G9422, Sigma-Aldrich), 1 mM Na3VO4 (S6508, Sigma-Aldrich), 15 mM β-mercaptoethanol (125472500, Acros Organics) and 1 × protease inhibitor cocktail (5056489001, Roche). Lysates were spun at 16,000 × g for 10 min at 4 °C; the supernatants were kept and total protein concentration was quantified by Bradford assay following the manufacturer's instructions.
(§2) These procedures were performed as described previously.
Cells were then treated with 10 mM 2-deoxyglucose (2DG), rapamycin (100 nM), AZD8055 (1 μM) or MG132 (10 μM) for 16 h. Cells were then lysed and samples containing equal amounts of protein were analysed by western blot using the indicated antibodies. Values given below each lane show quantitation of the signal for LC3II, corrected for the actin signal from multiple experiments as in (A) expressed as LC3II normalized to actin, mean ± SEM (control cells without treatment = 1; n = 3). (B) A549 cells were cultured as in (A) to induce eEF2K knockdown. […] (D) Data quantification of C, data are presented as means ± SEM. […]

[2] = system: GST-BHMT cleavage (autophagic flux) in A549 cells; assay: GST-BHMT cleavage assay in A549 cells; format: cell-based, human; conditions: AZD8055 1 μM, 16 h, Fig. 2B
Experimental: Cells were lysed as above. […] The precipitated GST-BHMT was washed three times in the ice cold lysis buffer. Precipitates were then boiled in SDS-PAGE sample buffer, resolved by SDS-PAGE and analysed by western blotting using anti-GST antibody.
Cells were then treated with 10 mM 2-deoxyglucose (2DG), rapamycin (100 nM), AZD8055 (1 μM) or MG132 (10 μM) for 16 h. Cells were then lysed and samples containing equal amounts of protein were analysed by western blot using the indicated antibodies. […] (B) A549 cells were cultured as in (A) to induce eEF2K knockdown. A549 cells were transiently transfected with the GST-BHMT construct and maintained in full media in the presence or absence of AZD8055 (1 μM) for 16 h, in the presence of leupeptin and E64d. GST-BHMT was precipitated with glutathione agarose from the whole cell extracts (bottom panel). […] (E) Untransfected A549 cells were treated with AZD8055 and BafA1 as described in A, cell lysates were collected at T0, 1 and 3 h for immunoblotting analysis.

P-eEF2 in A549 cells = assay: eEF2 phosphorylation in A549 cells (western blot); format: cell-based, human; conditions: 16 h, AZD8055 1 μM
Experimental: as §1, §2
Cells were then treated with 10 mM 2-deoxyglucose (2DG), rapamycin (100 nM), AZD8055 (1 μM) or MG132 (10 μM) for 16 h. Cells were then lysed and samples containing equal amounts of protein were analysed by western blot using the indicated antibodies. Values given below each lane show quantitation of the signal for LC3II, corrected for the actin signal from multiple experiments as in (A) expressed as LC3II normalized to actin, mean ± SEM (control cells without treatment = 1; n = 3). (B) A549 cells were cultured as in (A) to induce eEF2K knockdown. A549 cells were transiently transfected with the GST-BHMT construct and maintained in full media in the presence or absence of AZD8055 (1 μM) for 16 h, in the presence of leupeptin and E64d. GST-BHMT was precipitated with glutathione agarose from the whole cell extracts (bottom panel). Values given below show the quantitation of data from multiple experiments as in (B) expressed as the level of BHMT fragment normalized to the control without IPTG, mean ± SEM (control cells without treatment = 1; n = 3). Values given below each lane show quantitation of the signal for P-eEF2, corrected for the eEF2 signal from multiple experiments as in (B) expressed as P-eEF2 normalized to eEF2, mean ± SEM (control cells without treatment = 1; n = 3). (C) Cells were treated as described in Supplemental Fig. S3, visualized by confocal microscopy and the rate of autophagosome–lysosome fusion was measured according to green/red fluorescence ratio which reflect the percentage of unfused LC3. Scale bar = 20 μm. (D) Data quantification of C, data are presented as means ± SEM. (n = 5) ***P < 0.001, obtained by two-way ANOVA (Dunnett's test). (E) Untransfected A549 cells were treated with AZD8055 and BafA1 as described in A, cell lysates were collected at T0, 1 and 3 h for immunoblotting analysis. Values given below each lane show quantitation of the signal for LC3II, corrected for the LC3I signal from multiple experiments as in (E) expressed as LC3II normalized to LC3I, mean ± SEM (control cells without treatment = 1; n = 3).

TSC2−/− MEFs = assay: caspase 3/7 assay in TSC2−/− MEFs; format: cell-based, mouse; conditions: TSC2−/− cells; rapamycin 20 nM; 48 h; Fig. 4B
Experimental: Caspase 3/7 assays (G8090, Promega) were performed according to the manufacturer's instructions. Briefly, 10,000 cells/well were plated overnight in a 96-well plate. Cells were treated as described in the figure legends for the indicated time period. To measure caspase 3/7 activity, 50 μL of caspase Glo 3/7 reagent was added to each well for 2 h with constant shaking at room temperature. Luminescence was measured using a BMG Labtech FLUOstar Optimi plate reader. Cytotoxicity was evaluated by CellTox Green® cytotoxicity assay (Promega). Briefly, 10,000 cells/well were plated overnight in a 96-well plate. Cells were treated as described in the figure legends for the indicated time period. Fluorescence was measured at 485–500 nmEx/520–530 nmEm using a BMG Labtech FLUOstar Optimi plate reader.
(§3) Fig. 4 eEF2K aids the survival of TSC2^−/− cells under glucose-starved conditions. […] Cells were then lysed and samples containing equal amounts of protein were analysed by western blot using the indicated antibodies. Values given below each lane show quantitation of the signal for LC3II, corrected for the actin signal or P-eEF2, corrected for the eEF2 signal from multiple experiments as in (A), mean ± SEM (control cells without treatment = 1; n = 3). (B) Cells were treated for 48 h as described in (A), except that they were processed for caspase 3/7 assay. […]

P-eEF2 in TSC2−/− MEFs = assay: eEF2 phosphorylation in TSC2−/− MEFs (western blot); format: cell-based, mouse; conditions: TSC2−/− cells starved of glucose; rapamycin 20 nM; Fig. 4A
Experimental: as §1, with “instructions. […]” for “instructions.”
as §3, with “[…] The − signs of the Glucose row are barely visible, so the condition given” for “(B) Cells were treated”, “each lane is my best reading. / Panel A: which number belongs to which lane or group (Con, JAN-613, JAN-384) is judged from horizontal position only.” for “48 h as described in (A), except that they were processed for caspase 3/7 assay.”

[3] = 2DG 10 mM, rapamycin 100 nM, MG132 10 μM, Fig. 2A

Compound | green/red ratio (mCherry-EGFP-LC3B) in comparison to control cells [1] | LC3II/I ratio (LC3II in A549 cells) | cleavage of GST-BHMT [2] | phosphorylation of eEF2 (P-eEF2 in A549 cells; [3]) | phosphorylation of eEF2 (P-eEF2 in A549 cells; Fig. 2B) | adverse effect of glucose starvation (caspase 3/7 activity) countered (TSC2−/− MEFs) | caspase activity in control conditions (TSC2−/− MEFs) | eEF2 phosphorylation (P-eEF2 in TSC2−/− MEFs)
COc1ccc(-c2ccc3c(N4CCOC[C@@H]4C)nc(N4CCOC[C@@H]4C)nc3n2)cc1CO [AZD8055] | remained low | further increase | marked increase | induced the phosphorylation of eEF2 | marked increase | – | – | –
CO[C@H]1C[C@@H]2CC[C@@H](C)[C@@](O)(O2)C(=O)C(=O)N2CCCC[C@H]2C(=O)O[C@H]([C@H](C)C[C@@H]2CC[C@@H](O)[C@H](OC)C2)CC(=O)[C@H](C)/C=C(\C)[C@@H](O)[C@@H](OC)C(=O)[C@H](C)C[C@H](C)/C=C/C=C/C=C/1C [rapamycin] | – | – | – | induced the phosphorylation of eEF2 | – | fully | decreased | large increase
